The record followed here is US12479847B2 (DANA-FARBER CANCER INSTITUTE, INC., priority 2019, dated 2025).

What all share (test): KINOMEscan (ScanMAX) kinase profiling
Common to all, as to assay type: binding

In assay [1] the target is T1, panel of 468 kinases (Homo sapiens, UniProt P00533).
T1 construct: purchased KINOMEscan (ScanMAX) service
The conditions noted are these: EGFR; 1 μM; read-out: % control.

The target of assay [2] is T2, panel of 468 kinases (Homo sapiens, UniProt P30291).
T2 construct: purchased KINOMEscan (ScanMAX) service
The conditions noted are these: WEE1; 1 μM; read-out: % control.

Assay [3] deals with T3, panel of 468 kinases (Homo sapiens, UniProt O60285).
T3 construct: purchased KINOMEscan (ScanMAX) service
T3 sequence (O60285 1-661): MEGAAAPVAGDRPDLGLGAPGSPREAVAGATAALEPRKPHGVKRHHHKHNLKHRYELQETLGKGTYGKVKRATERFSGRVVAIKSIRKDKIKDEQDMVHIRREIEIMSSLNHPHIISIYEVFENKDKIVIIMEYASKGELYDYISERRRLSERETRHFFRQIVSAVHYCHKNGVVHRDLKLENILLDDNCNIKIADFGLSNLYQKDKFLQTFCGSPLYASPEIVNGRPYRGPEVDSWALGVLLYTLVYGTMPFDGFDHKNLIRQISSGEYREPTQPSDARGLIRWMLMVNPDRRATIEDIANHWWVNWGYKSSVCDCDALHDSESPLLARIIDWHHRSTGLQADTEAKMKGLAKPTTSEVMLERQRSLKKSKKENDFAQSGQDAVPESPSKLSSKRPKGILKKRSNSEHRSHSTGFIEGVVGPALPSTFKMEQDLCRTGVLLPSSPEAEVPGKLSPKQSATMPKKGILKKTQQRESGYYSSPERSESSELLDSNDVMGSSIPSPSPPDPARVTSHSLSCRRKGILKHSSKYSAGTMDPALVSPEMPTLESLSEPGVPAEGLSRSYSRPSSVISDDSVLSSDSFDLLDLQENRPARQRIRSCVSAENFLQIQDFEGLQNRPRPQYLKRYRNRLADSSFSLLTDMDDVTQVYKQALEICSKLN
The note with it: ARKS; 1 μM; read-out: % control.

Assay [4] deals with T4, panel of 468 kinases (Homo sapiens, UniProt P42336, I800L).
T4 construct: purchased KINOMEscan (ScanMAX) service
The conditions noted are these: PIK3CA(I800L); 1 μM; read-out: % control.

The target in assay [5] is T5, panel of 468 kinases (Homo sapiens, UniProt Q96D53).
T5 construct: purchased KINOMEscan (ScanMAX) service
T5 sequence (Q96D53 1-544): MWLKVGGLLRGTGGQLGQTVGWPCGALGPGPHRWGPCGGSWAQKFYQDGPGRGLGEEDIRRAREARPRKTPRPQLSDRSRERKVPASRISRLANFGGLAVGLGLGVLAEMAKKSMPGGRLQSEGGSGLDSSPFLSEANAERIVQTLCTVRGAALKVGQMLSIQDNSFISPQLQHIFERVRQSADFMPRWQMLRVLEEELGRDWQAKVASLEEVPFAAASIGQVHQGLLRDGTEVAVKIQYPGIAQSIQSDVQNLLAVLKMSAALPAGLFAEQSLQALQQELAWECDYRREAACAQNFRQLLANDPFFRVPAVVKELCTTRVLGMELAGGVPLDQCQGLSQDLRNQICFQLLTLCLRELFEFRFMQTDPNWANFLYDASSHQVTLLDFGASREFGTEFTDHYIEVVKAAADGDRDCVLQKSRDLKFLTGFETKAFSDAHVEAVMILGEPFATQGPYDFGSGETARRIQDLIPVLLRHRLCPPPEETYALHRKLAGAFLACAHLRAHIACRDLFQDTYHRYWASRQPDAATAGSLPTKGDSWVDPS
The conditions noted are these: ADCK4; 1 μM; read-out: % control.

Assay [6] has as its target T6, panel of 468 kinases (Homo sapiens, UniProt Q92772).
T6 construct: purchased KINOMEscan (ScanMAX) service
T6 sequence (Q92772 1-493): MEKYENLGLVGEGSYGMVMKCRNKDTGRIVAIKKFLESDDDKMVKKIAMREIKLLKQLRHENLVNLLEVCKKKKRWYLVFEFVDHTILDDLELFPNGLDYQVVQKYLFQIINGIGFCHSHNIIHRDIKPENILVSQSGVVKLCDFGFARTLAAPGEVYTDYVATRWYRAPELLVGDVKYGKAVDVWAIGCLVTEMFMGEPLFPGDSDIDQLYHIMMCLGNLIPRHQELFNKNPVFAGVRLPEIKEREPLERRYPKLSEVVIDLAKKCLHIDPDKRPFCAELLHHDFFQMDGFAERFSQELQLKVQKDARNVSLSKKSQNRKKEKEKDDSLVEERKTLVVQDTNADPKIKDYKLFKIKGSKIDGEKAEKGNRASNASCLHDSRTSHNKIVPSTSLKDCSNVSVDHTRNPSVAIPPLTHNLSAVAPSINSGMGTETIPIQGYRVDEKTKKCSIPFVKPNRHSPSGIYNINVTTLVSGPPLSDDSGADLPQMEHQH
The conditions noted are these: CDKL2; 1 μM; read-out: % control.

For assay [7], the target named is T7, panel of 468 kinases (Homo sapiens, UniProt P04049).
T7 construct: purchased KINOMEscan (ScanMAX) service
The conditions noted are these: RAF1; 1 μM; read-out: % control.

Assay [8] has as its target T8, panel of 468 kinases (Homo sapiens, UniProt Q9UM73, L1196M).
T8 construct: purchased KINOMEscan (ScanMAX) service
The conditions noted are these: ALK(L1196M); 1 μM; read-out: % control.

Assay [9] addresses T9, panel of 468 kinases (Homo sapiens, UniProt Q9Y243).
T9 construct: purchased KINOMEscan (ScanMAX) service
The conditions noted are these: AKT3; 1 μM; read-out: % control.

Assay [10] addresses T10, panel of 468 kinases (Homo sapiens, UniProt P42336, Q546K).
T10 construct: purchased KINOMEscan (ScanMAX) service
The conditions noted are these: PIK3CA(Q546K); 1 μM; read-out: % control.

T7 sequence (P04049 whole entry): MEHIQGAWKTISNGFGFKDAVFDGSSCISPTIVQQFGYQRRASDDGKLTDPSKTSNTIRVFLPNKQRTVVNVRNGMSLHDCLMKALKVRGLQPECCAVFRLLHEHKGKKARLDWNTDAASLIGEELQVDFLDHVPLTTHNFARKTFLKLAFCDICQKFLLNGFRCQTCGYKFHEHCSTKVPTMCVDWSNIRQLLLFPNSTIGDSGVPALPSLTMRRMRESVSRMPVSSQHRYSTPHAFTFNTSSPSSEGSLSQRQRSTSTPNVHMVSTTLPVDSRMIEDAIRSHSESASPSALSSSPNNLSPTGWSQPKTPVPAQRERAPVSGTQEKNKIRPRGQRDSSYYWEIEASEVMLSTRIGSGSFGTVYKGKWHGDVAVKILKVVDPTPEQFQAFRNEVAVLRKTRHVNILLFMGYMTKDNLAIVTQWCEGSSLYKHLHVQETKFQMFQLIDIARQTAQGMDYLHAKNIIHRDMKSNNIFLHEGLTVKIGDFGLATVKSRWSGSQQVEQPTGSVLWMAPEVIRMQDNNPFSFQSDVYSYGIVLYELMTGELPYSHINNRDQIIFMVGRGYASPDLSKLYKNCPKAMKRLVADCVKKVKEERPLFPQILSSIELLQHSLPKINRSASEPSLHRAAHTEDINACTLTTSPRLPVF
T9 sequence (Q9Y243 whole entry): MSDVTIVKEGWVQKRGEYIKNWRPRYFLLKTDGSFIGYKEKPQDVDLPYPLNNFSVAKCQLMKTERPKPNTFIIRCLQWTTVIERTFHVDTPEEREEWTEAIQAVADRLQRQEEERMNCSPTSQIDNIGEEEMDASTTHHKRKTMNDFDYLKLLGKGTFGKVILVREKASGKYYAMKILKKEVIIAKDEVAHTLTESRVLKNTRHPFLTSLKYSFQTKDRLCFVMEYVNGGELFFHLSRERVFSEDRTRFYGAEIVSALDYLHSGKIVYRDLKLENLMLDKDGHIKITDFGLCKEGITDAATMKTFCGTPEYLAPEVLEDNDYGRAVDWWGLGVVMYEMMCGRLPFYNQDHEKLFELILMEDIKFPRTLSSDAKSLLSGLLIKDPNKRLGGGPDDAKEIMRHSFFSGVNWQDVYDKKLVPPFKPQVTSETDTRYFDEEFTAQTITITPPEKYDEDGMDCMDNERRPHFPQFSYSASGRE
T10 sequence (P42336 whole entry Q546K): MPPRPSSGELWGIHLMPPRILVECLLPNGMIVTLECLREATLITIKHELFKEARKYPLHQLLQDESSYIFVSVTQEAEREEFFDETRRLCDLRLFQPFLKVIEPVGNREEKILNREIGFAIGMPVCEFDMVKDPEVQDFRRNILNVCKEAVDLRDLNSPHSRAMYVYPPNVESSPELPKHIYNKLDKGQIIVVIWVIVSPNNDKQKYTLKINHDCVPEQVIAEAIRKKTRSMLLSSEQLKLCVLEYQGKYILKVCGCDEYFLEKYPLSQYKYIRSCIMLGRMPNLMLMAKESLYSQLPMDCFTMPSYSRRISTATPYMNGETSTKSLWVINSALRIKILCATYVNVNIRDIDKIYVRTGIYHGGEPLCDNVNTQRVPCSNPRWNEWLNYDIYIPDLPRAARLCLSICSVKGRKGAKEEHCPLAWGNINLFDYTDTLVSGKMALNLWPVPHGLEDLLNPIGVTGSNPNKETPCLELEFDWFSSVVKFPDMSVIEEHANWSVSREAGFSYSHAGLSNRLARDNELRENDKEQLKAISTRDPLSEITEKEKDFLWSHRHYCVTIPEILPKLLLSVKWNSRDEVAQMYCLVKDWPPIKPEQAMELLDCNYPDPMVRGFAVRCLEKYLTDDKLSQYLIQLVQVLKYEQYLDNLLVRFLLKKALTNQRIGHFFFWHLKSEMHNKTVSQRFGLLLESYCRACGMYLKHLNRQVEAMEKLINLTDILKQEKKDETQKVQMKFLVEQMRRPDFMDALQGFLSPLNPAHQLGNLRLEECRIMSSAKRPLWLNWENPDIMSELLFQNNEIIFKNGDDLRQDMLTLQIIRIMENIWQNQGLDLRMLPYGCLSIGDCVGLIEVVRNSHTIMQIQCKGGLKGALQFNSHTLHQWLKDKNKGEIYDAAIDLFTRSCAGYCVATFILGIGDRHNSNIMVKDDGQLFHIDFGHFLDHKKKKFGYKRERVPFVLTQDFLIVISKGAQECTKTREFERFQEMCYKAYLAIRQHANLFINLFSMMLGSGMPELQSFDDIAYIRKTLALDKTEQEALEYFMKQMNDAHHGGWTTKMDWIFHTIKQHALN
T8 sequence (Q9UM73 19-1620 L1196M): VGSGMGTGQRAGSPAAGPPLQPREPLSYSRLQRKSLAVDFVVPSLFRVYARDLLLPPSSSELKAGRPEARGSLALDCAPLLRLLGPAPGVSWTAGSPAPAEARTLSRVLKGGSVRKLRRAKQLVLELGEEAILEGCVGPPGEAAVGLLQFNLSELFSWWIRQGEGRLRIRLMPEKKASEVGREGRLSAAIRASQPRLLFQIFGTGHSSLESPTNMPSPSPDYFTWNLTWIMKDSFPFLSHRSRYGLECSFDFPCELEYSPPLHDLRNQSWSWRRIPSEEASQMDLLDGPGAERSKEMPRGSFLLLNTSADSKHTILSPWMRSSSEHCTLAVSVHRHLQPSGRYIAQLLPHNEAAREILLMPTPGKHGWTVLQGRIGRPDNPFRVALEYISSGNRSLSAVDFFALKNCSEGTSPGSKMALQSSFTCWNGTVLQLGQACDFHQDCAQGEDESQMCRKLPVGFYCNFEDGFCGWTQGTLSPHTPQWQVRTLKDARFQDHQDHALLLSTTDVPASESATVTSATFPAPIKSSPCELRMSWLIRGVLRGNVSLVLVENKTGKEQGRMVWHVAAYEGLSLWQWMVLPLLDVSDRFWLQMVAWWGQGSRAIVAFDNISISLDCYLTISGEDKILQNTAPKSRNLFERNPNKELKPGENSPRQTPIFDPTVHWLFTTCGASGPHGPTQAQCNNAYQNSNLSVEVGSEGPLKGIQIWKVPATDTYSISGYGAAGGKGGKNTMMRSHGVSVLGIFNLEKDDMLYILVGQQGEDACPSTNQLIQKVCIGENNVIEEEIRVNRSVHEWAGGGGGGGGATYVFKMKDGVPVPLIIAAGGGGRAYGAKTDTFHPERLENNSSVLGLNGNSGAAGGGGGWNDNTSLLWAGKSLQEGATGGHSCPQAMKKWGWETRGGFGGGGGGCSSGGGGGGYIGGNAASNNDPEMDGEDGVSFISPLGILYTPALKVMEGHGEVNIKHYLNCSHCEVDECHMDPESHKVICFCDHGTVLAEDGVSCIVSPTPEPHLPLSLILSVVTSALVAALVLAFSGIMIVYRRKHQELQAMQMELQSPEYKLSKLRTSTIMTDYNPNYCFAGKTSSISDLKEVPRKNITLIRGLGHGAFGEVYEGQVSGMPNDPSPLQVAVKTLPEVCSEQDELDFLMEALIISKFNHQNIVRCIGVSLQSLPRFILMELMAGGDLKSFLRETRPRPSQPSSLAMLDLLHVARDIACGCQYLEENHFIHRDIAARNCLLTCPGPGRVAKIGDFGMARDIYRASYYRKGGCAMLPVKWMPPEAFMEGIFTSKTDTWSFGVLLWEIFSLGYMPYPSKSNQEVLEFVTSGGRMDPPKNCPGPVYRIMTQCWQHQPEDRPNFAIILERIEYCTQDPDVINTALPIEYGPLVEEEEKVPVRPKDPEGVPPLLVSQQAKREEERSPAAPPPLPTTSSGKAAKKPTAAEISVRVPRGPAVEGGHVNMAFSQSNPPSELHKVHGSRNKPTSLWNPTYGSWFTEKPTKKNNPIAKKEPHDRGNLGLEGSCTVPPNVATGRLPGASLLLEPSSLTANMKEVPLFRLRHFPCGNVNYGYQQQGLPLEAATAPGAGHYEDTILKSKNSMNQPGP
T2 sequence (P30291 whole entry): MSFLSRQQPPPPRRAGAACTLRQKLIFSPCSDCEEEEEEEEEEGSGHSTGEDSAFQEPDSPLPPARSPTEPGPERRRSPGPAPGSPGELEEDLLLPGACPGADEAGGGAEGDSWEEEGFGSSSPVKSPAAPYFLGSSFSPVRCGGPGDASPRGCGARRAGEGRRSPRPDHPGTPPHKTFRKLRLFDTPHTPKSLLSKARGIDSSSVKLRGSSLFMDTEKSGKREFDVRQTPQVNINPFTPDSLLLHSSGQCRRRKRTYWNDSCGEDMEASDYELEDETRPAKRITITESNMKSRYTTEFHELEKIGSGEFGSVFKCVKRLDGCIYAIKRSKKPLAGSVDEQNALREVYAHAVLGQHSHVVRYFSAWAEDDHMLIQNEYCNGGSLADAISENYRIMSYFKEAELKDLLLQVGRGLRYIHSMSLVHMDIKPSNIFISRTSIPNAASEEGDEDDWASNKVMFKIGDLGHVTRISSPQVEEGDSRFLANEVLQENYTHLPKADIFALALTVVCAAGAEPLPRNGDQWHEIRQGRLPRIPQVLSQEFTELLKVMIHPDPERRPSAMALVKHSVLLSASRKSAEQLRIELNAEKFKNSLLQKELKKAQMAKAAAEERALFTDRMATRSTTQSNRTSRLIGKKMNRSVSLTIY
T4 sequence (P42336 whole entry I800L): as the sequence (P42336 whole entry Q546K) above, with K546Q, I800L counted along it

Turning to `CNc1nc(Nc2ccc(S(=O)(=O)N3CCC(N4CCOCC4)CC3)cc2OC)nc2[nH]cc(Cl)c12` [Compound 12, 5-chloro-N2-(2-methoxy-4-((4-morpholinopiperidin-1-yl)sulfonyl)phenyl)-N4-methyl-7H-pyrrolo[2,3-d]pyrimidine-2,4-diamine], the remaining binding at 1 µM on panel of 468 kinases [1] came out at 89%; at panel of 468 kinases [2] it was 78%; on panel of 468 kinases [3] it was 100%; at panel of 468 kinases [4], 74%; at panel of 468 kinases [5], 100%; at panel of 468 kinases [6], 100%. In addition, the remaining binding at 1 µM on panel of 468 kinases [7] was determined as 100%; on panel of 468 kinases [8], 11%; at panel of 468 kinases [9], 100%; at panel of 468 kinases [10], 50%.

For the molecule `CNc1nc(Nc2ccc(C(=O)N3CCC(N4CCOCC4)CC3)c3c2OCO3)nc2[nH]cc(Cl)c12` [Compound 75, (7-((5-chloro-4-(methylamino)-7H-pyrrolo[2,3-d]pyrimidin-2-yl)amino)benzo[d][1,3]dioxol-4-yl)(4-morpholinopiperidin-1-yl)methanone], the remaining binding at 1 µM was determined as 80% at panel of 468 kinases [1]; 95% on panel of 468 kinases [2]; 23% on panel of 468 kinases [3]; 87% at panel of 468 kinases [4]; 100% on panel of 468 kinases [5]; 100% at panel of 468 kinases [6]. Also, the remaining binding at 1 µM was determined as 100% on panel of 468 kinases [7], 27% at panel of 468 kinases [8], 100% at panel of 468 kinases [9] and 65% on panel of 468 kinases [10].

Take `CNc1nc(Nc2ccc(P3(=O)CCN(C4CCOCC4)CC3)cc2OC)nc2[nH]cc(Cl)c12` [Compound 77, 4-(4-((5-chloro-4-(methylamino)-7H-pyrrolo[2,3-d]pyrimidin-2-yl)amino)-3-methoxyphenyl)-1-(tetrahydro-2H-pyran-4-yl)-1,4-azaphosphinane 4-oxide]: the remaining binding at 1 µM is 84% on panel of 468 kinases [1]; 93% at panel of 468 kinases [2]; 96% at panel of 468 kinases [3]; 69% on panel of 468 kinases [4]; 81% at panel of 468 kinases [5]; 100% on panel of 468 kinases [6]. In addition, the remaining binding at 1 µM amounted to 100% at panel of 468 kinases [7], 7.1% at panel of 468 kinases [8], 100% on panel of 468 kinases [9] and 46% on panel of 468 kinases [10].
